Data on 2 molecules can be found in patent US9610299B2, “Compounds for the treatment of addiction” (Gilead Sciences, Inc., priority 2011, dated 2017).

Assay type in all cases: in vivo
Assay [1] concerns male Sprague Dawley (SD) rats. Nature of the assay: Rat cocaine cue reinstatement. Conditions: for inhibition of cocaine cue-induced reinstatement (lever presses): 1 hr before session, vs vehicle. On the procedure: Training of male Sprague Dawley (SD) rats had 3 separate stages. First, during self administration, animals were trained to lever press for cocaine with presentation of concomitant cues associated with drug delivery. Rats that reached criteria for addiction were included in the study. Afterward, during cue extinction, cocaine-cue dependent behavior was extinguished. Lastly, during cocaine cue reinstatement, the effect of compounds was tested on lever presses upon cue presentation (FIG. 2).
Rats were trained to self administer i.v. cocaine (0.35 mg/kg/injection) daily (Monday to Friday) in standard operant chambers with retractable levers (Coulbourn Instruments, PA). During the daily 2 hr session, rats received a 0.05 ml infusion of 0.35 mg/kg cocaine every time the active lever was pressed. A cue light and tone turned on for 2 sec together with activation of a pump that delivered the cocaine solution. Rats were required to maintain an infusion rate of ≧20+ per day for at least 10 days before being moved to extinction training.
During extinction sessions lever presses no longer produced cocaine infusion and cue light/tone presentation was absent. Rats received a maximum of 15 extinction sessions.
On the next day after reaching extinction criteria, rats were treated orally with vehicle (Formulation 2B: 25% PEG400/5% Vit E TPGS/1% SLS/69% water with 0.5% Methocel) or drug (compound of Example 2 or compound of Example 5) before the cue reinstatement session. Cue reinstatement began with a tone and cue light. This 2 hr session was identical to the self-administration session (cue light and tone present upon active lever press) except that no cocaine was delivered. The number of active lever presses was compared to extinction lever responding. This is considered a measure of reinstatement. The next day, rats were returned to extinction sessions for at least 2 or 3 more sessions. Rats then received a second and last reinstatement session with an opposite treatment to the one received on the first reinstatement session (vehicle or drug treatment). […] The light/tone presentation triggers this response and it is interpreted as a measure of reinstatement even though cocaine is not available.

Assay [2] has as its system Male SD rats. Nature of the assay: Rat nicotine self administration, acute treatment. Conditions: for inhibition of number of nicotine infusions: vs vehicle. On the procedure:
Male SD rats were trained to self administer i.v. nicotine (0.03 mg/kg/inj) daily (Monday to Friday) in standard operant chambers with retractable levers (MED Associates, Inc) as previously published (Levin et al., 2003; Levin et al., 2007). During the daily 45 min session, rats received 0.05 ml infusion of 0.03 mg/kg/infusion of nicotine every time the active lever was pressed. A cue light and tone turned on for 0.5 sec together with the activation of a pump that delivered the nicotine solution. Daily sessions were run for at least 10 days before the initiation of drug testing. Solutions of compounds of Example 2 and Example 5 were prepared fresh daily in Formulation 2B: 25% PEG400/5% Vit E TPGS/1% SLS/69% water with 0.5% Methocel) for oral dosing. Compound of Example 2 doses were administered in a counterbalanced design for testing 1 hr before each nicotine session. Every rat received all drug doses and vehicle in a randomly assigned order. The oral drug administrations were made twice per week.
Compound of Example 5 was tested in a study using 4 independent groups. Each group received either oral vehicle or 1 of the 3 doses of compound of Example 5 (5, 10 or 30 mg-eq/kg). […] The 5 mg/kg dose was ineffective.

Assay [3] relates to Male SD rats. The experiment in a line: Rat nicotine self administration, chronic treatment. Conditions: for inhibition of number of nicotine infusions: vs vehicle. As to the method: Upon completion of the acute compound of Example 5 treatment study, the same animals were used to test the effect of 7-day chronic oral administration of compound of Example 5 in the nicotine self administration model. Rats were treated orally with compound of Example 5 (5, 10 or 30 mg-eq/kg) or vehicle 1 hr before nicotine self administration session for 7 consecutive days. […] Similar to the acute treatment, the 5 mg-eq/kg dose was ineffective (FIG. 7). […] Animals in nicotine self administration studies had to reach pre defined criteria (e.g. rat strain, minimum number of nicotine infusions, consistent baseline nicotine self administration throughout the study, patent iv catheters, etc.) to be included in analysis.

As to `O=C(NCc1ccc(-c2ccn(COP(=O)(O)O)c(=O)c2)cc1)c1c(Cl)cccc1Cl` [Compound 14, phosphoric acid mono-(4-{4-[(2,6-dichloro-benzoylamino)-methyl]-phenyl}-2-oxo-2H-pyridin-1-ylmethyl) ester], the “inhibition of cocaine cue-induced reinstatement (lever presses)” value is on record as 30% in assay [1] (2.5 mg-eq/kg oral), 59% in assay [1] (5 mg-eq/kg oral), 55% in assay [1] (10 mg-eq/kg oral) and 50% in assay [1] (30 mg-eq/kg oral). Besides, in assay [1] (2.5 mg-eq/kg oral, lowest dose tested), the “effect on cocaine cue reinstatement, in words” value is “not significantly different from vehicle”. Further, the “effect on number of nicotine infusions, in words” value with Male SD rats [2] (5 mg-eq/kg oral, independent groups) is reported as “ineffective”; in the assay on Male SD rats [3] (7-day chronic oral, 5 mg-eq/kg) it was “ineffective”. The “inhibition of number of nicotine infusions” value in the assay on Male SD rats [2] (10 mg-eq/kg oral, independent groups) is listed as 51%; with Male SD rats [2] (30 mg-eq/kg oral, independent groups) it was 68%; in the assay on Male SD rats [3] (7-day chronic oral, 10 mg-eq/kg), 48%; in the assay on Male SD rats [3] (7-day chronic oral, 30 mg-eq/kg), 62%. In addition, the “development of tolerance to the therapeutic effect” value in the assay with Male SD rats [3] (7-day chronic oral administration (data not shown)) is listed as “no development of tolerance”.

For the molecule `O=C(NCc1ccc(-c2cc[nH]c(=O)c2)cc1)c1c(Cl)cccc1Cl` [Compound 2, 2,6-dichloro-N-[4-(2-oxo-1,2-dihydro-pyridin-4-yl)-benzyl]-benzamide], the “effect on number of nicotine infusions, in words” value in the assay with Male SD rats [2] (1 mg/kg oral) and in the assay with Male SD rats [2] (5 mg/kg oral) was “without effect” in each case.
